ChEMBL document CHEMBL3885861, “Open TG-GATES”

Species: Rattus norvegicus
Test: Open TG-GATES - Regimen: Single
Format: toxicity, organism-based, Sprague-Dawley
Set-up: regimen Single, gender Male, age 6 weeks
Settings: in vivo, po, 0 mg/kg, route gavage, dose level Control; for APTT / Bas / Eos / Fbg / Hb / Ht / Lym / MCH / MCHC / MCV / Mono / Neu / PT / Plat / RBC / Ret / WBC: tissue Blood; for KIDNEY_L / KIDNEY_R / KIDNEY_TOTAL: tissue Kidney; for LIVER: tissue Liver; for A/G / ALP / ALT / AST / BUN / CRE / Ca / Cl / DBIL / GLC / IP / K / LDH / Na / PL / RALB / TBIL / TC / TG / TP / gamma-GTP: tissue Plasma

Compound: NNC(=O)c1ccncc1 [ISONIAZID]
- TERMINAL_BW (3 h): 225.5 g
- APTT (3 h): 18.5 s
- Bas (3 h): 0%
- Eos (3 h): 1%
- Fbg (3 h): 232.2 mg/dL
- Hb (3 h): 13.5 g/dL
- Ht (3 h): 37.8%
- Lym (3 h): 80%
- MCH (3 h): 21.5 pg
- MCHC (3 h): 35.7%
- MCV (3 h): 60.3 fL
- Mono (3 h): 3%
- Neu (3 h): 15.6%
- PT (3 h): 11.8 s
- Plat (3 h): 121.9 x10_4/uL
- RBC (3 h): 627.2 x10_4/ul
- Ret (3 h): 8.1%
- WBC (3 h): 82.1 x10_2/uL
- KIDNEY_L (3 h): 1 g
- KIDNEY_R (3 h): 0.9 g
- KIDNEY_TOTAL (3 h): 1.9 g
- LIVER (3 h): 10.5 g
- A/G (3 h): 1.5
- ALP (3 h): 945.2 IU/L
- ALT (3 h): 34.2 IU/L
- AST (3 h): 66 IU/L
- BUN (3 h): 10 mg/dL
- CRE (3 h): 0.4 mg/dL
- Ca (3 h): 10.9 mg/dL
- Cl (3 h): 104.2 meq/L
- DBIL (3 h): 0.066 mg/dL
- GLC (3 h): 195.6 mg/dL
- IP (3 h): 8.8 mg/dL
- K (3 h): 4.1 meq/L
- LDH (3 h): 160 IU/L
- Na (3 h): 141.8 meq/L
- PL (3 h): 148.2 mg/dL
- RALB (3 h): 3.3 g/dL
- TBIL (3 h): 0.1 mg/dL
- TC (3 h): 80.8 mg/dL
- TG (3 h): 90.6 mg/dL
- TP (3 h): 5.5 g/dL
- gamma-GTP (3 h): 1.2 IU/L
- TERMINAL_BW (6 h): 221.6 g
- APTT (6 h): 19.9 s
- Bas (6 h): 0%
- Eos (6 h): 1%
- Fbg (6 h): 230 mg/dL
- Hb (6 h): 13.5 g/dL
- Ht (6 h): 37.6%
- Lym (6 h): 80.8%
- MCH (6 h): 21.8 pg
- MCHC (6 h): 35.8%
- MCV (6 h): 60.9 fL
- Mono (6 h): 3%
- Neu (6 h): 14.6%
- PT (6 h): 12.3 s
- Plat (6 h): 125.3 x10_4/uL
- RBC (6 h): 618.4 x10_4/ul
- Ret (6 h): 8%
- WBC (6 h): 96.3 x10_2/uL
- KIDNEY_L (6 h): 1 g
- KIDNEY_R (6 h): 0.9 g
- KIDNEY_TOTAL (6 h): 1.9 g
- LIVER (6 h): 9.2 g
- A/G (6 h): 1.6
- ALP (6 h): 976.8 IU/L
- ALT (6 h): 31.2 IU/L
- AST (6 h): 64.8 IU/L
- BUN (6 h): 8.8 mg/dL
- CRE (6 h): 0.4 mg/dL
- Ca (6 h): 10.4 mg/dL
- Cl (6 h): 104.2 meq/L
- DBIL (6 h): 0.068 mg/dL
- GLC (6 h): 197.6 mg/dL
- IP (6 h): 9.8 mg/dL
- K (6 h): 4.1 meq/L
- LDH (6 h): 156.6 IU/L
- Na (6 h): 141.2 meq/L
- PL (6 h): 133.8 mg/dL
- RALB (6 h): 3.3 g/dL
- TBIL (6 h): 0.1 mg/dL
- TC (6 h): 78.4 mg/dL
- TG (6 h): 52.8 mg/dL
- TP (6 h): 5.4 g/dL
- gamma-GTP (6 h): 1.2 IU/L
- TERMINAL_BW (9 h): 220.2 g
- APTT (9 h): 17.3 s
- Bas (9 h): 0%
- Eos (9 h): 0.8%
- Fbg (9 h): 221.8 mg/dL
- Hb (9 h): 13.5 g/dL
- Ht (9 h): 37.7%
- Lym (9 h): 79.2%
- MCH (9 h): 21.8 pg
- MCHC (9 h): 35.7%
- MCV (9 h): 61.1 fL
- Mono (9 h): 2%
- Neu (9 h): 16.6%
- PT (9 h): 12.5 s
- Plat (9 h): 120.7 x10_4/uL
- RBC (9 h): 617.4 x10_4/ul
- Ret (9 h): 7.7%
- WBC (9 h): 101.6 x10_2/uL
- KIDNEY_L (9 h): 0.9 g
- KIDNEY_R (9 h): 0.9 g
- KIDNEY_TOTAL (9 h): 1.9 g
- LIVER (9 h): 8.6 g
- A/G (9 h): 1.7
- ALP (9 h): 780 IU/L
- ALT (9 h): 31.4 IU/L
- AST (9 h): 70 IU/L
- BUN (9 h): 9.6 mg/dL
- CRE (9 h): 0.4 mg/dL
- Ca (9 h): 10.5 mg/dL
- Cl (9 h): 104.6 meq/L
- DBIL (9 h): 0.066 mg/dL
- GLC (9 h): 200.6 mg/dL
- IP (9 h): 9.7 mg/dL
- K (9 h): 3.8 meq/L
- LDH (9 h): 237.4 IU/L
- Na (9 h): 142.2 meq/L
- PL (9 h): 137.6 mg/dL
- RALB (9 h): 3.4 g/dL
- TBIL (9 h): 0.1 mg/dL
- TC (9 h): 74.8 mg/dL
- TG (9 h): 54.6 mg/dL
- TP (9 h): 5.4 g/dL
- gamma-GTP (9 h): 1 IU/L
- TERMINAL_BW (24 h): 234.8 g
- APTT (24 h): 18.6 s
- Bas (24 h): 0.4%
- Eos (24 h): 1.2%
- Fbg (24 h): 217.8 mg/dL
- Hb (24 h): 13.8 g/dL
- Ht (24 h): 38%
- Lym (24 h): 76%
- MCH (24 h): 22.6 pg
- MCHC (24 h): 36.2%
- MCV (24 h): 62.3 fL
- Mono (24 h): 2.8%
- Neu (24 h): 19.2%
- PT (24 h): 11.5 s
- Plat (24 h): 127.6 x10_4/uL
- RBC (24 h): 610 x10_4/ul
- Ret (24 h): 7.2%
- WBC (24 h): 106 x10_2/uL
- KIDNEY_L (24 h): 1 g
- KIDNEY_R (24 h): 1 g
- KIDNEY_TOTAL (24 h): 2 g
- LIVER (24 h): 10.9 g
- A/G (24 h): 1.6
- ALP (24 h): 930.6 IU/L
- ALT (24 h): 34 IU/L
- AST (24 h): 68.8 IU/L
- BUN (24 h): 14.8 mg/dL
- CRE (24 h): 0.4 mg/dL
- Ca (24 h): 10.9 mg/dL
- Cl (24 h): 103.8 meq/L
- DBIL (24 h): 0.058 mg/dL
- GLC (24 h): 191 mg/dL
- IP (24 h): 7.7 mg/dL
- K (24 h): 4.2 meq/L
- LDH (24 h): 190.8 IU/L
- Na (24 h): 141.8 meq/L
- PL (24 h): 154 mg/dL
- RALB (24 h): 3.5 g/dL
- TBIL (24 h): 0.1 mg/dL
- TC (24 h): 80 mg/dL
- TG (24 h): 114 mg/dL
- TP (24 h): 5.6 g/dL
- gamma-GTP (24 h): 1 IU/L
